Experimental data reported in PubChem BioAssay (NCI).
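Five concentrations, 48 hours, 96-well plates. Definition used: TGI = concentration required for complete inhibition of growth.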 Activity calls are given as the source filed them. Rule as the data show it: active = GI50 below about 0.43 µM; inactive = the rest.

How the values were obtained:
Assay in all cases: inhibition of tumour cell growth, NCI panel, 48 h
786-0 renal = test system: 786-0 renal
A498 renal = test system: A498 renal
A549 NSCLC = test system: A549 NSCLC
ACHN renal = test system: ACHN renal
BT-549 breast = test system: BT-549 breast
CAKI-1 renal = test system: CAKI-1 renal
CCRF-CEM leukemia = test system: CCRF-CEM leukemia
COLO 205 colon = test system: COLO 205 colon
DU-145 prostate = test system: DU-145 prostate
EKVX NSCLC = test system: EKVX NSCLC
HCC-2998 colon = test system: HCC-2998 colon
HCT-116 colon = test system: HCT-116 colon
HCT-15 colon = test system: HCT-15 colon
HOP-62 NSCLC = test system: HOP-62 NSCLC
IGROV1 ovarian = test system: IGROV1 ovarian
K-562 leukemia = test system: K-562 leukemia
KM12 colon = test system: KM12 colon
LOX IMVI melanoma = test system: LOX IMVI melanoma
M14 melanoma = test system: M14 melanoma
MALME-3M melanoma = test system: MALME-3M melanoma
MCF7 breast = test system: MCF7 breast
MDA-MB-231 breast = test system: MDA-MB-231 breast
MDA-MB-435 = test system: MDA-MB-435
MDA-N = test system: MDA-N
MOLT-4 leukemia = test system: MOLT-4 leukemia
NCI-H226 lung = test system: NCI-H226 lung
NCI-H23 lung = test system: NCI-H23 lung
NCI-H460 lung = test system: NCI-H460 lung
NCI-H522 lung = test system: NCI-H522 lung
NCI/ADR-RES ovarian = test system: NCI/ADR-RES ovarian
OVCAR-4 ovarian = test system: OVCAR-4 ovarian
OVCAR-5 ovarian = test system: OVCAR-5 ovarian
OVCAR-8 ovarian = test system: OVCAR-8 ovarian
PC-3 prostate = test system: PC-3 prostate
RPMI-8226 leukemia = test system: RPMI-8226 leukemia
RXF 393 renal = test system: RXF 393 renal
SF-268 CNS = test system: SF-268 CNS
SF-295 CNS = test system: SF-295 CNS
SF-539 CNS = test system: SF-539 CNS
SK-MEL-2 melanoma = test system: SK-MEL-2 melanoma
SK-MEL-28 melanoma = test system: SK-MEL-28 melanoma
SK-MEL-5 melanoma = test system: SK-MEL-5 melanoma
SK-OV-3 ovarian = test system: SK-OV-3 ovarian
SN12C renal = test system: SN12C renal
SNB-19 CNS = test system: SNB-19 CNS
SNB-75 CNS = test system: SNB-75 CNS
SR leukemia = test system: SR leukemia
SW-620 colon = test system: SW-620 colon
T-47D breast = test system: T-47D breast
TK-10 renal = test system: TK-10 renal
U251 CNS = test system: U251 CNS
UACC-257 melanoma = test system: UACC-257 melanoma
UACC-62 melanoma = test system: UACC-62 melanoma
UO-31 renal = test system: UO-31 renal
HL-60(TB) leukemia = test system: HL-60(TB) leukemia
HOP-92 NSCLC = test system: HOP-92 NSCLC
HS 578T breast = test system: HS 578T breast
HT29 colon = test system: HT29 colon
OVCAR-3 ovarian = test system: OVCAR-3 ovarian

COc1ccc2c(c1)CC[C@@H]1[C@@H]2CC[C@]2(C)C(=O)/C(=C/c3ccc(C#N)cc3)C[C@@H]12
TGI (786-0 renal): > 100 µM
TGI (A498 renal): > 100 µM
TGI (A549 NSCLC): > 100 µM
TGI (ACHN renal): > 100 µM
TGI (BT-549 breast): > 100 µM
TGI (CAKI-1 renal): > 100 µM
TGI (CCRF-CEM leukemia): > 100 µM
TGI (COLO 205 colon): > 100 µM
TGI (DU-145 prostate): > 100 µM
TGI (EKVX NSCLC): > 100 µM
TGI (HCC-2998 colon): > 100 µM
TGI (HCT-116 colon): > 100 µM
TGI (HCT-15 colon): > 100 µM
TGI (HOP-62 NSCLC): > 100 µM
TGI (IGROV1 ovarian): > 100 µM
TGI (K-562 leukemia): > 100 µM
TGI (KM12 colon): > 100 µM
TGI (LOX IMVI melanoma): > 100 µM
TGI (M14 melanoma): > 100 µM
TGI (MALME-3M melanoma): > 100 µM
TGI (MCF7 breast): > 100 µM
TGI (MDA-MB-231 breast): > 100 µM
TGI (MDA-MB-435): > 100 µM
TGI (MDA-N): > 100 µM
TGI (MOLT-4 leukemia): > 100 µM
TGI (NCI-H226 lung): > 100 µM
TGI (NCI-H23 lung): > 100 µM
TGI (NCI-H460 lung): > 100 µM
TGI (NCI-H522 lung): > 100 µM
TGI (NCI/ADR-RES ovarian): > 100 µM
TGI (OVCAR-4 ovarian): > 100 µM
TGI (OVCAR-5 ovarian): > 100 µM
TGI (OVCAR-8 ovarian): > 100 µM
TGI (PC-3 prostate): > 100 µM
TGI (RPMI-8226 leukemia): > 100 µM
TGI (RXF 393 renal): > 100 µM
TGI (SF-268 CNS): > 100 µM
TGI (SF-295 CNS): > 100 µM
TGI (SF-539 CNS): > 100 µM
TGI (SK-MEL-2 melanoma): > 100 µM
TGI (SK-MEL-28 melanoma): > 100 µM
TGI (SK-MEL-5 melanoma): > 100 µM
TGI (SK-OV-3 ovarian): > 100 µM
TGI (SN12C renal): > 100 µM
TGI (SNB-19 CNS): > 100 µM
TGI (SNB-75 CNS): > 100 µM
TGI (SR leukemia): > 100 µM
TGI (SW-620 colon): > 100 µM
TGI (T-47D breast): > 100 µM
TGI (TK-10 renal): > 100 µM
TGI (U251 CNS): > 100 µM
TGI (UACC-257 melanoma): > 100 µM
TGI (UACC-62 melanoma): > 100 µM
TGI (UO-31 renal): > 100 µM

COC(=O)c1nc2c(C)c(O)c(Oc3c(C)c(O)c(O)c([C@H](C)CCC=C(C)C)c3O)c([C@H](C)CCC=C(C)C)c2o1
outcome (786-0 renal): inactive
outcome (A498 renal): inactive
outcome (A549 NSCLC): inactive
outcome (ACHN renal): inactive
outcome (BT-549 breast): inactive
outcome (CAKI-1 renal): inactive
outcome (CCRF-CEM leukemia): inactive
outcome (COLO 205 colon): inactive
outcome (DU-145 prostate): inactive
outcome (EKVX NSCLC): inactive
outcome (HCC-2998 colon): inactive
outcome (HCT-116 colon): inactive
outcome (HCT-15 colon): inactive
outcome (HL-60(TB) leukemia): inactive
outcome (HOP-92 NSCLC): inactive
outcome (HS 578T breast): inactive
outcome (HT29 colon): inactive
outcome (IGROV1 ovarian): inactive
outcome (K-562 leukemia): inactive
outcome (KM12 colon): inactive
outcome (LOX IMVI melanoma): inactive
outcome (M14 melanoma): inactive
outcome (MALME-3M melanoma): inactive
outcome (MCF7 breast): inactive
outcome (MDA-MB-435): inactive
outcome (MDA-N): inactive
outcome (MOLT-4 leukemia): inactive
outcome (NCI-H226 lung): inactive
outcome (NCI-H23 lung): inactive
outcome (NCI-H460 lung): inactive
outcome (NCI/ADR-RES ovarian): inactive
outcome (OVCAR-3 ovarian): inactive
outcome (OVCAR-4 ovarian): inactive
outcome (OVCAR-5 ovarian): inactive
outcome (OVCAR-8 ovarian): inactive
outcome (PC-3 prostate): inactive
outcome (RPMI-8226 leukemia): inactive
outcome (SF-268 CNS): inactive
outcome (SF-295 CNS): inactive
outcome (SF-539 CNS): inactive
outcome (SK-MEL-2 melanoma): inactive
outcome (SK-MEL-28 melanoma): inactive
outcome (SK-OV-3 ovarian): inactive
outcome (SN12C renal): inactive
outcome (SNB-19 CNS): inactive
outcome (SNB-75 CNS): inactive
outcome (SR leukemia): inactive
outcome (SW-620 colon): inactive
outcome (T-47D breast): inactive
outcome (TK-10 renal): inactive
outcome (UACC-257 melanoma): inactive
outcome (UO-31 renal): inactive
